Where two headings read alike, the source gives them in different places. Where a SMILES comes first, the peptide text is derived from it. Where no end group is shown, it is not given here. [ ]: non-standard residue; d: D form. 2Nal = N[C@@H](Cc1ccc2ccccc2c1)C(=O)O
Key:
[1] = target: T1, hZO1 PDZ1 (Homo sapiens, UniProt Q07157); experiment: IC50 (nM) | hZO1 PDZ1 | 5 nM | B01-88 | Bio-GGWRWTTWL (SEQ ID NO 684) | 36 nM
T1 construct: Human ZO1 (NM_003257) PDZ1; GST; made in house
Method: (§1) Table printed on a drawing sheet, Fig. 12
Head of the field: IC50 (nM) | hZO1 PDZ1 | 5 nM | B01-88 | Bio-GGWRWTTWL (SEQ ID NO 684) | 36 nM
(§2) The patent's description of the figure: FIG. 12. IC50 values indicating binding affinities of various peptides to PDZ domains
(§3) First copying reader's note: The first column (three lines per block: protein, accession, PDZ domain) is treated as one cell spanning its block; an empty ruled row above the IC50/SD head is left out; #### cells are spreadsheet overflow marks as printed; several heads and cells are cut off at the left by the print (ample, eptide No, EQ ID NO).
Where the first naming reader finds the target: head: IC50 (nM) | hZO1 PDZ1 | 5 nM | B01-88

[2] = target: ERBIN PDZ domain (Homo sapiens, UniProt Q96RT1); experiment: Competition ELISA, ERBIN PDZ-GST binding to immobilized biotinylated peptide; set-up: made in house; host or cells: E. coli; conditions: for fold less potent than Ac-WETWV (SEQ ID NO:225): Alanine scanning of WETWV peptide
Sequence of ERBIN PDZ domain (Q96RT1 1258-1412): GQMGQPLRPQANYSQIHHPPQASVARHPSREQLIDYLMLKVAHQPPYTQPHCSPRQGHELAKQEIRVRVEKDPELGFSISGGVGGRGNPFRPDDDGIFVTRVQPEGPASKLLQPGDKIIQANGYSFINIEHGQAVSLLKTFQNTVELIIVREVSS
Method: Binding affinities of the peptides for the ERBIN PDZ domain were determined as IC50 values using competition ELISAs. […] Assay plates were prepared by coating Maxisorp plates overnight at 4° C. with 65 μl of a 2 μg/ml solution of neutravidin in PBS. The plates were then blocked through addition of 65 μl of a 1% solution of bovine serum albumin (BSA) in PBS for 1 hour at room temperature, then washed 10 times with PBS containing 0.05% Tween-20. 65 μl of the amino-terminally biotinylated peptide PDZ 501 (TGWETWV; SEQ ID NO:222) was then added at a concentration of 100 nM in PBS with 0.5% BSA and 0.05% Tween-20 and incubated for 1 hour at room temperature. Simultaneously, binding reactions consisting of serial dilutions of the test compounds in PBS with 0.5% BSA and 0.05% Tween-20 containing 2 μg/ml ERBIN PDZ-GST fusion protein were incubated for 1 hour at room temperature. The plate coated with the immobilized peptide was again washed 10 times before 65 μl of each binding reaction was added to a well and incubated for 15 minutes at room temperature. The plates were again washed 10 times before being developed by incubating for 30 minutes with a 1:1000 dilution of anti-mouse HRP conjugated antibody and a 1:2000 dilution of a mouse anti-GST antibody in PBS with 0.5% BSA and 0.05% Tween-20. The plates were washed 10 times, then incubated with 100 μl HRP substrate for 5 minutes and the color developed through addition of 100 μl of 1 M H3PO4. The plates were read at 450 nm and the absorption fit to a binding curve using a least squares fit.
Binding affinities of the peptides for the ERBIN PDZ domain were determined as IC50 values using competition ELISAs. […] Assay plates were prepared by coating microwell plates overnight with neutravidin. The plates were then blocked through addition of BSA, and then amino-terminally biotinylated WETWV (SEQ ID NO:225) was then bound to the plates. Simultaneously, binding reactions consisting of serial dilutions of the test peptides with ERBIN PDZ-GST fusion proteins were performed. The plate coated with the immobilized WETWV (SEQ ID NO:225) was extensively washed before adding each binding reaction to the wells and briefly incubated. After further washing, anti-mouse HRP conjugated antibody and a mouse anti-GST antibody were added. The plates were then developed with HRP substrate and H3PO4, and then read at 450 nm. The absorption fit to a binding curve using a least squares fit. Thus the ability of the various peptides to inhibit ERBIN PDZ domain from binding its cognate was measured. […]

[3] = target: ERBIN PDZ-GST fusion protein (aa. 1217-1371 of SEQ ID NO:201) (human) [GST: P08515]; experiment: competition ELISA: ERBIN PDZ-GST binding to immobilized biotin-WETWV
Sequence of ERBIN PDZ-GST fusion protein (aa. 1217-1371 of SEQ ID NO:201) (human) [GST: P08515] (P08515 whole entry, the tested form may be a part): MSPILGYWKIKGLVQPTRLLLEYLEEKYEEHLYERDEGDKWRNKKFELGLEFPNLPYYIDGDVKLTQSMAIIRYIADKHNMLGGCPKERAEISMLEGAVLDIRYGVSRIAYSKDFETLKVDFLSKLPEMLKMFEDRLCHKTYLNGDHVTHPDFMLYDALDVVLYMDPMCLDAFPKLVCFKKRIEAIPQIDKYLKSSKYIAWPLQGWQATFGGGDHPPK

[4] = target: T2, Erbin PDZ (Homo sapiens, UniProt Q96RT1); experiment: IC50 (nM) | Erbin PDZ | 2 nM | PDZ501 | Bio-Ac-GGWETWV (SEQ ID NO 687) | 37 nM
T2 construct: made in house; host or cells: E. coli
T2 sequence (Q96RT1 1258-1412): as the sequence (Q96RT1 1258-1412) above
Method: as §1, §2, §3
Where the first naming reader finds the target: head: IC50 (nM) | Erbin PDZ | 2 nM | PDZ501

[5] = target: GST-MAGI-3 PDZ 2 (aa. 584-707 of SEQ ID NO:200) (human) [GST: P08515]; experiment: competition ELISA: peptide blocks GST-PDZ binding to immobilized peptide
Sequence of GST-MAGI-3 PDZ 2 (aa. 584-707 of SEQ ID NO:200) (human) [GST: P08515] (P08515 whole entry, the tested form may be a part): as the sequence (P08515 whole entry, the tested form may be a part) above

[6] = Small molecules that inhibit ERBIN PDZ domain from binding immobilized WETWV, read-out: IC50
[7] = ERBIN peptide truncations without N-terminal acylation
[8] = Substitutions for tryptophan at the −1 position
[9] = ERBIN peptide truncations with N-terminal acylation
[10] = ERBIN peptide truncations with N-terminal acylation, read-out: IC50

T1 sequence (Q07157 23-110): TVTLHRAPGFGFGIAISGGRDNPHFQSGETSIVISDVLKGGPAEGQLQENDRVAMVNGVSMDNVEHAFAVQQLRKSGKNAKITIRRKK

Ac-KITWL [25 | 01-06, SEQ ID NO 664 N^AC-KITWL]
IC50 [1]: 2320 nM

CC(C)C(NC(=O)C(Cc1cc2ccccc2[nH]1)NC(=O)c1cc2ccccc2[nH]1)C(=O)O (stereo not shown) [WV 66]
IC50 [2, 6]: 549 µM

Ac-TWY (peptide)
IC50 [3]: 77.4 µM | fold less potent than Ac-GWETWV [3]: 81.5 fold

Ac-FETWL [3 | 01-08, SEQ ID NO 642 N^AC-FETWL]
IC50 [4]: 3160 nM

CC(C)C(NC(=O)C(Cc1cc2ccccc2[nH]1)NC(=O)C1CCc2ccccc2C1)C(=O)O (stereo not shown) [WV 38]
IC50 [2, 6]: 304 µM

CC(C)[C@H](NC(=O)[C@H](Cc1c[nH]c2ccccc12)NC(=O)[C@@H](NC(=O)[C@@H](N)CCC(=O)O)[C@@H](C)O)C(=O)O [H1N -ETWV] (H-ETWV-OH; C-terminus assumed)
fold less potent than H1N -GWETWV [2, 7]: 11.5 fold | IC50 ([2]; ERBIN peptide truncations without N-terminal acylation, read-out: IC50): 16.5 µM

H-WETWV [H1N -WETWV]
IC50 [2]: 0.2 µM | fold less potent than H1N -GWETWV [2, 7]: 0.2 fold

Ac-WETAV [Ac-WETAV]
IC50 [2]: 34 µM | fold less potent than Ac-WETWV (SEQ ID NO:225) [2]: 69.3 fold | fold less potent than Ac-WETWV [2, 8]: 69.3 fold

CC(C)C(NC(=O)C(Cc1cc2ccccc2[nH]1)NC(=O)c1ccc(-c2ccc([N+](=O)[O-])cc2)o1)C(=O)O (stereo not shown) [WV 58]
IC50 [2, 6]: 697 µM

Ac-KSTWL [23 | 01-03, SEQ ID NO 662 N^AC-KSTWL]
IC50 [1]: 5310 nM

Ac-WATWV [Ac-WATWV]
IC50 [2]: 14.8 µM | fold less potent than Ac-WETWV (SEQ ID NO:225) [2]: 30.3 fold

Ac-YSLTGYV [15 | 01-94, SEQ ID NO 654 N^AC-YSLTGYV]
IC50 [1]: 12400 nM

Ac-RETWL [22 | 01-02, SEQ ID NO 661 N^AC-RETWL]
IC50 [4]: 39700 nM | IC50 [1]: 28600 nM

Ac-KTSTSYV [14 | 01-97, SEQ ID NO 653 N^AC-KTSTSYV]
IC50 [1]: 2030 nM

Ac-YRLNDYV [18 | 01-98, SEQ ID NO 657 N^AC-YRLNDYV]
IC50 [1]: 28600 nM

Ac-WELLI [38 | 01-21, SEQ ID NO 677 NAC-WELLI]
IC50 [1]: 20100 nM

Ac-ERIWFV [29 | 01-24, SEQ ID NO 668 NAC-ERIWFV]
IC50 [1]: 21400 nM

Ac-WESWV [Ac-WESWV]
IC50 [2]: 2.5 µM | fold less potent than Ac-WETWV ([2]; Substitutions for threonine at the −2 position and glutamate at the −3 position): 5.2 fold

CC(C)C(NC(=O)C(Cc1cc2ccccc2[nH]1)NC(=O)c1cnc2ccccc2n1)C(=O)O (stereo not shown) [WV 46]
IC50 [2, 6]: 334 µM

HTQITWV (peptide)
IC50 [5]: 300 nM

H1N -TWV (peptide)
IC50 [3]: 105 µM | fold less potent than H1N -GWETWV [3]: 73.6 fold

CC(=O)N[C@@H](CCC(=O)O)C(=O)N[C@H](C(=O)N[C@@H](Cc1c[nH]c2ccccc12)C(=O)N[C@H](C(=O)O)C(C)C)[C@@H](C)O [Ac-ETWV] (Ac-ETWV-OH; C-terminus assumed)
fold less potent than Ac-GWETWV [2, 9]: 5.1 fold | IC50 [2, 10]: 4.9 µM

CC(=O)N[C@@H](Cc1c[nH]c2ccccc12)C(=O)N[C@H](C(=O)O)C(C)C [Ac-WV] (Ac-Trp-Val-OH; C-terminus assumed)
fold less potent than Ac-GWETWV [2, 9]: 78.7 fold | IC50 [2, 10]: 77.8 µM

GCGCSWV (peptide)
IC50 [5]: 2000 nM

CC(=O)N[C@@H](Cc1c[nH]c2ccccc12)C(=O)N[C@@H](CCC(=O)O)C(=O)N[C@H](C(=O)N[C@@H](Cc1ccc2ccccc2c1)C(=O)N[C@H](C(=O)O)C(C)C)[C@@H](C)O [Ac-WETNapV] (Ac-WET[2Nal]V-OH; C-terminus assumed)
IC50 [2]: 0.6 µM | fold less potent than Ac-WETWV [2, 8]: 1.1 fold

— US20030148264A1, “Phage displayed PDZ domain ligands” (GENENTECH, INC., priority 2001, published 2003)
